Where two headings read alike, the source gives them in different places.
Legend:
HCV-RNA viral load = experiment: Effect on HCV-RNA viral load, 14 days dosing of HCV positive genotype 1 interferon non responders (Example 3); format: in vivo
Protocol: Multiple escalating doses of compound of Formula Ia were administered for 14 days to HCV positive subjects who were genotype 1 Interferon-a (with or without ribavirin) non responders. In a randomized, placebo controlled, third party blind study, multiple doses of 100 mg BID, 200 mg BID, 400 mg BID, 400 mg TID, and 600 mg TID of compound of Formula Ia or placebo in a 3:1 ratio with or without food were evaluated. […]
Serial HCV-RNA data were evaluated for antiviral activity and for the change from baseline in the serum HCV RNA levels.

[1] = Multiple oral dosing for 14 days, pharmacokinetics in HCV infected subjects (Example 3); format: in vivo, human; conditions: for DN Cmax / DN-AUC(0-12 hr): dose-normalized (to 100 mg); for Cmin: at 0 hour (trough) predose; for Cmax / AUC(0-t) / Tmax / Vd/F / half-life: human, plasma, oral; for half-life: read-out: t½ (converted)
Protocol: Multiple escalating doses of compound of Formula Ia were administered for 14 days to HCV positive subjects who were genotype 1 Interferon-a (with or without ribavirin) non responders. In a randomized, placebo controlled, third party blind study, multiple doses of 100 mg BID, 200 mg BID, 400 mg BID, 400 mg TID, and 600 mg TID of compound of Formula Ia or placebo in a 3:1 ratio with or without food were evaluated.
Upon acceptance into the study, within each cohort, subjects were randomized in a 3:1 ratio (active to placebo) and received one of the following dosing groups: • Group 1: Compound of Formula Ia 100 mg (2×50 mg) BID or matching placebo×14 days without food. • Group 2: Compound of Formula Ia 200 mg (2×100 mg) BID or matching placebo×14 days without food. • Group 3: Compound of Formula Ia 400 mg (4×100 mg) BID or matching placebo×14 days without food. • Group4: Compound of Formula Ia 400 mg (4×100 mg) TID or matching placebo×14 days without food. • Group 5: Compound of Formula Ia 400 mg (4×100 mg) BID or matching placebo×14 days with food. • Group 6: Compound of Formula Ia 600 mg (6×100 mg) BID or matching placebo×14 days without food. • Group 7: Compound of Formula Ia 600 mg (6×100 mg) BID or matching placebo×14 days with food. • Group 8: compound of Formula Ia 600 mg (6×100 mg) TID or matching placebo×14 days without food. • Group 9: compound of Formula Ia intermediate dose or matching placebo×14 days with or without food.
Each subject was randomized to one treatment group. On Day 14, only the AM dose was administered.
For Cohorts Without Food: Treatments were administered on the morning (approximately 8 AM) of Days 1 and 14 following a 10 hour fast. Fasting continued until 4 hours postdose. Water was allowed during the fasting period. On the nonpharmacokinetic collection days (Days 2 through 13) breakfast and dinner were consumed either 90 minutes before or 90 minutes after each dose. All treatments were administered with approximately 240 mL of noncarbonated water. All doses on Days 1-14 were administered at approximately the same time each day, for cohorts with BID dosing study treatment were administered approximately 12 hours apart at 8 AM and 8 PM, and for cohorts with TID dosing study treatment were administered approximately 8 hours apart at 8 AM, 4 PM, and 12 Midnight.
For Cohorts With TID Dosing: All volunteers were dosed three times daily at approximately the same time each day; the doses were administered approximately 8 hours apart at 8 AM, 4 PM, and 12 Midnight.
For Cohorts With BID Dosing: All volunteers were dosed twice a day at approximately the same time each day. The doses were administered approximately 12 hours apart at 8 AM and 8 PM.
On Day 14, all subjects received only their assigned AM dose. During the dosing the capsule(s) were swallowed whole, not chewed or crushed. After dosing, the oral cavity was inspected to assure the volunteer had completely swallowed the capsule(s). […] Water was permitted throughout the fasting and nonfasting periods.
The plasma concentration data of compound of Formula Ia was used to estimate the following pharmacokinetic parameters: • Cmax—Maximum observed plasma concentration; • Tmax—Time of observed maximum plasma concentration; • AUC(0-t)—Area under the plasma concentration-time curve over the dosing interval • AUC (tf)—Area under the plasma concentration-time curve to the final quantifiable sample • CL/F—Apparent total body clearance. • t½—Terminal phase half life • Vd/F—Apparent volume of distribution • R—Accumulation ratio
All plasma samples were assayed for compound of Formula Ia using a validated liquid chromatographic tandem mass spectrometric (LC-MS/MS) method.

[2] = 100 mg, Day 14, 100 mg BID, mean
[3] = 200 mg, Day 14, 200 mg BID, mean
[4] = 400 mg, Day 14, 400 mg BID, mean
[5] = 400 mg, Day 14, 400 mg TID, mean

CC(C)(C)NC(=O)N[C@H](C(=O)N1C[C@H]2[C@@H]([C@H]1C(=O)NC(CC1CCC1)C(=O)C(N)=O)C2(C)C)C(C)(C)C (mixture of isomers) [Formula Ia, (1 R, 5S)-N-[3-Amino-1-(Cyclobutylmethyl)-2,3-Dioxopropyl]-3-[2(S)-[[[(1,1-Dimethylethyl)Amino]Carbonyl]Amino]-3,3-Dimethyl-1-Oxobutyl]-6,6-Dimethyl-3-Azabicyclo[3.1.0]Hexan-2(S)-Carboxamide]
Viral load (HCV-RNA) reduction from baseline, average minimum reduction (HCV-RNA viral load; 400 mg TID, 14 days): 2 logs | HCV-RNA following discontinuation of the 14-day treatment (HCV-RNA viral load; all patients): returned to baseline levels | mean accumulation ratio ([1]; BID dosing): 1 | DN Cmax ([1]; Day 1, 100 mg BID, mean): 131 ng/mL | DN-AUC(0-12 hr) ([1]; Day 1, 100 mg BID, mean): 417 ng·h/mL | DN Cmax ([1]; Day 1, 200 mg BID, mean): 162 ng/mL | DN-AUC(0-12 hr) ([1]; Day 1, 200 mg BID, mean): 492 ng·h/mL | DN Cmax ([1]; Day 1, 400 mg BID, mean): 116 ng/mL | DN-AUC(0-12 hr) ([1]; Day 1, 400 mg BID, mean): 421 ng·h/mL | Cmin ([1]; Day 14, 100 mg BID, mean): 12.7 ng/mL | DN Cmax ([1]; Day 14, 100 mg BID, mean): 193 ng/mL | DN-AUC(0-12 hr) ([1]; Day 14, 100 mg BID, mean): 700 ng·h/mL | CL/F ([1]; Day 14, 100 mg BID, mean): 159 L/h | R (accumulation ratio) ([1]; Day 14, 100 mg BID, mean): 2.40 | t½ ([1]; Day 14, 100 mg BID, mean): 8.58 h | Cmin ([1]; Day 14, 200 mg BID, mean): 46.3 ng/mL | DN Cmax ([1]; Day 14, 200 mg BID, mean): 212 ng/mL | DN-AUC(0-12 hr) ([1]; Day 14, 200 mg BID, mean): 693 ng·h/mL | CL/F ([1]; Day 14, 200 mg BID, mean): 155 L/h | R (accumulation ratio) ([1]; Day 14, 200 mg BID, mean): 1.45 | Cmin ([1]; Day 14, 400 mg BID, mean): 48.8 ng/mL | DN Cmax ([1]; Day 14, 400 mg BID, mean): 115 ng/mL | DN-AUC(0-12 hr) ([1]; Day 14, 400 mg BID, mean): 411 ng·h/mL | CL/F ([1]; Day 14, 400 mg BID, mean): 269 L/h | R (accumulation ratio) ([1]; Day 14, 400 mg BID, mean): 1.00 | Cmin ([1]; Day 14, 400 mg TID, mean): 183 ng/mL | DN Cmax ([1]; Day 14, 400 mg TID, mean): 138 ng/mL | CL/F ([1]; Day 14, 400 mg TID, mean): 206 L/h | R (accumulation ratio) ([1]; Day 14, 400 mg TID, mean): 1.26 | Cmax ([1]; 100 mg, Day 1, 100 mg BID, mean, n = 12): 131 ng/mL | AUC(0-t) ([1]; 100 mg, Day 1, 100 mg BID, mean, read-out: AUC(0-12 hr)): 417 ng·h/mL | Tmax ([1]; 100 mg, Day 1, 100 mg BID, median, read-out: Tmax): 1.5 h | Cmax [1, 2]: 193 ng/mL | Vd/F [1, 2]: 1860 L | AUC(0-t) ([1]; 100 mg, Day 14, 100 mg BID, mean, read-out: AUC(0-12 hr)): 700 ng·h/mL | half-life [1, 2]: 510 min | Tmax ([1]; 100 mg, Day 14, 100 mg BID, median, read-out: Tmax): 1.25 h | Cmax ([1]; 200 mg, Day 1, 200 mg BID, mean, n = 12): 324 ng/mL | AUC(0-t) ([1]; 200 mg, Day 1, 200 mg BID, mean, read-out: AUC(0-12 hr)): 983 ng·h/mL | Tmax ([1]; 200 mg, Day 1, 200 mg BID, median, read-out: Tmax): 1 h | Cmax [1, 3]: 424 ng/mL | Vd/F [1, 3]: 2910 L | AUC(0-t) ([1]; 200 mg, Day 14, 200 mg BID, mean, read-out: AUC(0-12 hr)): 1390 ng·h/mL | half-life [1, 3]: 804 min | Tmax ([1]; 200 mg, Day 14, 200 mg BID, median, read-out: Tmax): 1.25 h | Cmax ([1]; 400 mg, Day 1, 400 mg BID, mean, n = 11): 463 ng/mL | AUC(0-t) ([1]; 400 mg, Day 1, 400 mg BID, mean, read-out: AUC(0-12 hr)): 1680 ng·h/mL | Tmax ([1]; 400 mg, Day 1, 400 mg BID, median, read-out: Tmax): 1.5 h | Cmax ([1]; 400 mg, Day 1, 400 mg TID, mean, n = 10): 504 ng/mL | AUC(0-t) ([1]; 400 mg, Day 1, 400 mg TID, mean, read-out: AUC(0-8 hr)): 1650 ng·h/mL | Tmax ([1]; 400 mg, Day 1, 400 mg TID, median, read-out: Tmax): 1.5 h | Cmax [1, 4]: 459 ng/mL | Vd/F [1, 4]: 5030 L | AUC(0-t) ([1]; 400 mg, Day 14, 400 mg BID, mean, read-out: AUC(0-12 hr)): 1640 ng·h/mL | half-life [1, 4]: 744 min | Tmax ([1]; 400 mg, Day 14, 400 mg BID, median, read-out: Tmax): 1 h | Cmax [1, 5]: ~550 ng/mL | Vd/F [1, 5]: ~5000 L | AUC(0-t) ([1]; 400 mg, Day 14, 400 mg TID, mean, read-out: AUC(0-8 hr)): 1990 ng·h/mL | half-life [1, 5]: 954 min | Tmax ([1]; 400 mg, Day 14, 400 mg TID, median, read-out: Tmax): 1.5 h | Tmax ([1]; across dosages (100 mg BID to 400 mg TID), read-out: Mean Tmax): 1 to 1.5 h | Time at which steady-state trough levels were reached ([1]; multiple dosing): ~11 days
